Assay results as given in patent US4370330A, “Method of enhancing circulation with piperazines” (Merz & Company, priority 1979, dated 1983).
Counter-ions that a name gives are not always drawn. Like-named read-outs stand apart in the source and are kept apart here.

Columns and labels:
[1] = acute toxicity after oral application, LD50; conditions: in vivo
Source text: The therapeutic range of the substances according to the invention can again be described as excellent, since the LD50 values lie in a favorable range, as is shown by the results of acute toxicity tests on the mouse after oral application.

in vivo [2] = test: in vivo
[3] = tested on: cerebrovascular resistance; test: cerebrovascular resistance on the rabbit (Hutten and Vaupel), decrease in vascular resistance after arterial application; format: in vivo; conditions: for inhibition in vivo at 1 %: Oryctolagus cuniculus, read-out: ΔR % (relative decrease in vascular resistance)
Method: The therapeutic effect is expressed in terms of decrease in vascular resistance.
For this purpose 0.1 ml of a 1% solution of the test substance, i.e., according to the invention, was administered to the rabbit by arterial application. The decrease in vascular resistance (R) and the relative decrease in vascular resistance (ΔR%) were recorded and expressed in mm Hg min/l or in the valid S.I. unit k Pa min/ml, i.e., absolute decrease of resistance x time.
The activity of this compound was tested by means of the aforementioned method.

in vivo [4] = test: in vivo; remark: listed apart in the source
Source text: The calculation of the therapeutic indices was based on the

[5] = Table 2; mean effective dose
[6] = mouse, po, read-out: Acute toxicity LD50, 24 h
[7] = mouse, po, read-out: Acute toxicity LD50, 14 days
[8] = Table 4, rabbit, 0.1 ml of a 1% solution, arterial application
[9] = Table 3, mouse oral, 24 h, read-out: Acute toxicities LD50, 24 h
[10] = Table 3, mouse oral, 14 days, read-out: Acute toxicities LD50, 14 days
[11] = Table 1, rabbit, 0.1 ml of a 1% solution, arterial application

| SMILES | LD50 at 24 h [1, 9] | LD50 at 336 h [1, 10] | ED50 [5] | selectivity ratio (in vivo [2]; iv) | inhibition in vivo at 1 % [3, 11] | Absolute decrease of vascular resistance R [3, 11] | LD50 (in vivo [4]; iv) | other results |
| --- | --- | --- | --- | --- | --- | --- | --- | --- |
| COc1cc(CN2CCN(c3cc(OC)c(OC)c(OC)c3)CC2)cc(OC)c1OC [Example 4] |  |  |  |  |  |  |  | LD50 at 24 h [1, 6]: 348 mg/kg; LD50 at 336 h [1, 7]: 348 mg/kg; selectivity ratio (in vivo [2]): 7000; inhibition in vivo at 1 % [3, 8]: 21.5%; LD50 (in vivo [4]): 350 mg/kg |
| COc1cc(CN2CCN(c3cccc(C)c3)CC2)cc(OC)c1OC.Cl [m. Methyl-, N-(3,4,5-trimethoxy-benzyl)-N'-(3-methylphenyl)-piperazine hydrochloride] | 452 mg/kg | 310 mg/kg | 0,46 mg/kg | 1520 | 22% | 3,2 mm Hg min/l | 700 mg/kg |  |
| COc1cc(CN2CCN(c3ccc(F)cc3)CC2)cc(OC)c1OC.Cl [p. Fluoro-, N-(3,4,5-trimethoxy-benzyl)-N'-(4-fluorophenyl)-piperazine hydrochloride] | 350 mg/kg | 275 mg/kg | 0,37 mg/kg | 1570 | 26.4% | 4,6 mm Hg min/l | 580 mg/kg |  |
| COc1cc(CN2CCN(c3ccccc3F)CC2)cc(OC)c1OC.Cl [o. Fluoro-, N-(3,4,5-trimethoxy-benzyl)-N'-(2-fluorophenyl)-piperazine hydrochloride] |  |  | 0,40 mg/kg | 2280 | 23% | 3,0 mm Hg min/l | 920 mg/kg |  |
| COc1cc(CN2CCN(c3ccc(Cl)c(C(F)(F)F)c3)CC2)cc(OC)c1OC [Example 2] |  |  |  |  |  |  |  | LD50 at 24 h [1, 6]: 328 mg/kg; LD50 at 336 h [1, 7]: 283 mg/kg; selectivity ratio (in vivo [2]): 3150; inhibition in vivo at 1 % [3, 8]: 26.3%; LD50 (in vivo [4]): 283 mg/kg |
| COc1cc(CN2CCN(c3ccccc3C)CC2)cc(OC)c1OC [o. Methyl-, N-(3,4,5-trimethoxybenzyl)-N'-(2-methylphenyl)-piperazine] | 457 mg/kg | 311 mg/kg | 0,48 mg/kg | 1450 | 24.5% | 3,3 mm Hg min/l | 700 mg/kg |  |
| COc1cc(CN2CCN(c3c(C)cccc3C)CC2)cc(OC)c1OC [Example 6] |  |  |  |  |  |  |  | LD50 at 24 h [1, 6]: 348 mg/kg; LD50 at 336 h [1, 7]: 265 mg/kg; selectivity ratio (in vivo [2]): 3800; inhibition in vivo at 1 % [3, 8]: 23%; LD50 (in vivo [4]): 265 mg/kg |
| COc1cc(CN2CCN(c3ccc(C)cc3)CC2)cc(OC)c1OC [p. Methyl-, hydrochloride] | 459 mg/kg | 312 mg/kg | 0,44 mg/kg | 1630 | 23% | 3,3 mm Hg min/l | 720 mg/kg |  |
| COc1cc(CN2CCN(c3ccccc3)CC2)cc(OC)c1OC.Cl [Example 21, N-(3,4,5-trimethoxy-benzyl)-N'-phenyl-piperazine hydrochloride] |  |  |  |  |  |  |  | LD50 at 24 h ([1]; mouse, oral, 24 hours, read-out: oral acute toxicity (LD50) after 24 hours): 320 mg/kg; LD50 at 336 h ([1]; mouse, oral, fourteen days, read-out: oral acute toxicity (LD50) after fourteen days): 265 mg/kg; Absolute decrease of vascular resistance R ([3]; Hutten and Vaupel rabbit test): 3.0 mm. Hg. min/l; circulation stimulant activity (in words) ([3]; Hutten and Vaupel rabbit test): circulation stimulant; decrease of vascular resistance (ΔR %) ([3]; Hutten and Vaupel rabbit test): 23.2% |
| CCc1ccccc1N1CCN(Cc2cc(OC)c(OC)c(OC)c2)CC1.Cl.Cl [o. Ethyl-, N-(3,4,5-trimethoxy-benzyl)-N'-(2-ethylphenyl)-piperazine dihydrochloride] | 456 mg/kg | 311 mg/kg | 0,40 mg/kg | 2240 | 21.7% | 3,0 mm Hg min/l | 900 mg/kg |  |
| COc1ccccc1N1CCN(Cc2cc(OC)c(OC)c(OC)c2)CC1.Cl.Cl [o. Methoxy-, N-(3,4,5-trimethoxy-benzyl)-N'-(2-methoxyphenyl)-piperazine dihydrochloride] |  |  | 0,42 mg/kg | 2750 | 22.2% | 2,94 mm Hg min/l | 1150 mg/kg |  |
| COc1cc(CN2CCN(c3ccc(C)c(C)c3)CC2)cc(OC)c1OC [Example 1] |  |  |  |  |  |  |  | LD50 at 24 h [1, 6]: 348 mg/kg; LD50 at 336 h [1, 7]: 263 mg/kg; selectivity ratio (in vivo [2]): 13000; inhibition in vivo at 1 % [3, 8]: 24.3%; LD50 (in vivo [4]): 260 mg/kg |
| C(=C\c1ccccc1)/CN1CCN(C(c2ccccc2)c2ccccc2)CC1 [Cinnarizine, reference compound] |  |  |  |  | 19.3% | 2,9 mm Hg min/l |  | Absolute decrease in vascular resistance R [3, 8]: 2.9 mm Hg min/l |
| COc1cc(CN2CCN(c3ccccc3[N+](=O)[O-])CC2)cc(OC)c1OC.Cl [o. Nitro-, N-(3,4,5-trimethoxy-benzyl)-N'-(2-nitrophenyl)-piperazine hydrochloride] | 274 mg/kg | 201 mg/kg | 0,50 mg/kg | 1300 | 20.6% | 3,1 mm Hg min/l | 650 mg/kg |  |
| COc1cc(CN2CCN(c3ccc(O)cc3)CC2)cc(OC)c1OC.Cl [p. Hydroxy-, N-(3,4,5-trimethoxy-benzyl)-N'-(4-hydroxyphenyl)-piperazine hydrochloride] | 306 mg/kg | 245 mg/kg | 0,45 mg/kg | 2800 | 19.5% | 2,8 mm Hg min/l | 1260 mg/kg |  |
| COc1cc(CN2CCN(c3cc(C(F)(F)F)cc(C(F)(F)F)c3)CC2)cc(OC)c1OC [Example 5] |  |  |  |  |  |  |  | LD50 at 24 h [1, 6]: 300 mg/kg; LD50 at 336 h [1, 7]: 280 mg/kg; selectivity ratio (in vivo [2]): 5600; inhibition in vivo at 1 % [3, 8]: 20.6%; LD50 (in vivo [4]): 280 mg/kg |
| COc1cccc(N2CCN(Cc3cc(OC)c(OC)c(OC)c3)CC2)c1.Cl [m. Methoxy-, N-(3,4,5-trimethoxy-benzyl)-N'-(3-methoxyphenyl)-piperazine hydrochloride] | 411 mg/kg | 285 mg/kg | 0,42 mg/kg | 2010 | 28.5% | 3,0 mm Hg min/l | 850 mg/kg |  |
| COc1cc(CN2CCN(c3ccccc3Cl)CC2)cc(OC)c1OC.Cl.Cl [o. Chloro-, N-(3,4,5-trimethoxy-benzyl)-N'-(2-chlorophenyl)-piperazine dihydrochloride] | 295 mg/kg | 255 mg/kg | 0,38 mg/kg | 2130 | 27.9% | 3,0 mm Hg min/l | 810 mg/kg |  |
| CCOc1ccccc1N1CCN(Cc2cc(OC)c(OC)c(OC)c2)CC1.Cl.Cl [o. Ethoxy-, N-(3,4,5-trimethoxy-benzyl)-N'-(2-ethoxyphenyl)-piperazine dihydrochloride] | 411 mg/kg | 266 mg/kg | 0,45 mg/kg | 1990 | 20.4% | 2,85 mm Hg min/l | 900 mg/kg |  |
| COc1cc(CN2CCN(c3ccc4c(c3)OCO4)CC2)cc(OC)c1OC [Example 3] |  |  |  |  |  |  |  | LD50 at 24 h [1, 6]: 312 mg/kg; LD50 at 336 h [1, 7]: 296 mg/kg; selectivity ratio (in vivo [2]): 2700; inhibition in vivo at 1 % [3, 8]: 22%; LD50 (in vivo [4]): 297 mg/kg |
| COc1ccc(N2CCN(Cc3cc(OC)c(OC)c(OC)c3)CC2)cc1.Cl.Cl [p. Methoxy-, N-(3,4,5-trimethoxy-benzyl)-N'-(4-methoxyphenyl)-piperazine dihydrochloride] |  |  | 0,30 mg/kg | 3050 |  | 3,90 mm Hg min/l | 910 mg/kg | inhibition in vivo at 1 % [3]: 27.8% |
